Reference: PubChem BioAssay AID1549 (Sanford-Burnham Center for Chemical Genomics, 2009)
The source made the active and inactive calls. How the calls were made is not given here.

The compounds below were run against Influenza A virus M2 proton channel (A/TW/4845/1999 H1N1) (assay: NMR binding screen, influenza A virus M2 proton channel, Kd (AID 1549)). Details: M2 protein.
For C[C@@H]1OC(O[C@H]2[C@H](OC(=O)[C@]34CCC(C)(C)CC3C3=CCC5[C@@]6(C)CC[C@H](OC7O[C@@H](C)[C@H](O[C@@H]8OC[C@@H](O)[C@H](O)[C@H]8O)[C@@H](O)[C@H]7O)C(C)(C)C6CC[C@@]5(C)[C@]3(C)CC4O)OC[C@H](O)[C@H]2O)[C@H](O)[C@H](O)[C@H]1O[C@@H]1O[C@H](CO)[C@@H](O)[C@H](O)[C@H]1O (some centres undefined), the Kd was > 4 mM (inactive). With CC(=O)c1ccc2c(c1)OCCO2 the Kd was > 4 mM (inactive). For Nc1ccc(S(=O)(=O)Nc2ccc(F)cc2F)cc1, the Kd was > 4 mM (inactive). With CCOC(=O)c1ccc(Oc2ccc(C)nn2)cc1 the Kd was > 4 mM (inactive). For CC(=O)NC(=S)Nc1ccccc1C(N)=O, the Kd was > 4 mM (inactive). For Cn1nnc2cc(CN)ccc21, the Kd was > 4 mM (inactive). Nc1ncnc2c1ncn2C1O[C@H](COP(=O)(O)O)[C@@H](O)[C@H]1O (some centres undefined) was tested, and the Kd was > 4 mM (inactive). In the case of Cc1nccn1CCC(=O)O, the Kd is reported as > 4 mM (inactive). For COc1cc2c(cc1OC)C(C)NCC2 (centres undefined), the Kd was > 4 mM (inactive). For Nc1nc2ccc(N3CCOCC3)cc2s1, the Kd was > 4 mM (inactive). With CC(C)[C@@H]1CC[C@@H](C)C[C@H]1OC(=O)c1ccccc1 the Kd was > 4 mM (inactive). With COc1ccc(S(=O)(=O)N2CCOCC2)cc1C(C)C the Kd was > 4 mM (inactive). For O=C(CSc1nc2ccccc2[nH]1)N1CCCCC1, the Kd was > 4 mM (inactive). In the case of Cc1ccc(N2C(=O)CC(=O)NC2=O)cc1, the Kd is reported as > 4 mM (inactive). With CCNCC(O)c1ccc([N+](=O)[O-])cc1 (centres undefined) the Kd was > 4 mM (inactive). For Cc1occc1C(=O)Nc1ccc2c(c1)OCO2, the Kd was > 4 mM (inactive). For O=C(O)c1cnc2sc3ccccc3n2c1=O, the Kd was > 4 mM (inactive). For O=[n+]1c2c(n([O-])c3ccccc31)CCCC2, the Kd was > 4 mM (inactive). With O=C1CCc2ccccc2CN1 the Kd was > 4 mM (inactive). In the case of NCCc1ccc(S(N)(=O)=O)cc1, the Kd is reported as > 4 mM (inactive). For CSc1nc2cc(F)c(F)cc2n1C, the Kd was > 4 mM (inactive). In the case of CC(=O)O[C@H]1CC[C@]2(C)C3CC[C@@]4(C)C(CC5O[C@@]6(CCC(C)CO6)[C@@H](C)C54)C3CC[C@@H]2C1 (some centres undefined), the Kd is reported as > 4 mM (inactive). CN(C)S(=O)(=O)c1ccc(N2CCOCC2)nc1 was tested, and the Kd was > 4 mM (inactive). Cc1cc(NC(=O)c2c(F)c(F)c(F)c(F)c2F)no1 was tested, and the Kd was > 4 mM (inactive). In the case of CC(=O)Nc1ccc(NC(=O)C2CC2)cc1, the Kd is reported as > 4 mM (inactive). CC12CC[C@H](CC1=O)C2(C)C was tested, and the Kd was > 4 mM (inactive). For CC(C)=CC1C(CO)C1(C)C (centres undefined), the Kd was > 4 mM (inactive). With COc1cc2c(cc1O)CC1c3c(cc(O)c(OC)c3-2)CCN1C (centres undefined) the Kd was > 4 mM (inactive). In the case of Cc1nc(N2CCOCC2)[nH]c(=O)c1C, the Kd is reported as > 4 mM (inactive). O=C(Nc1nncs1)C1(c2ccccc2)CCCC1 was tested, and the Kd was > 4 mM (inactive). In the case of O=C1CN(C(=O)c2ccccc2)c2ccccc2N1, the Kd is reported as > 4 mM (inactive). In the case of Nc1ccc2c(c1)CCC2=O, the Kd is reported as > 4 mM (inactive). In the case of COC(=O)C[C@@H]1C2(C)C(=O)[C@@H](CC3=C4CC(O)O[C@@H](c5ccoc5)[C@]4(C)CCC32)[C@H](O)C1(C)C (some centres undefined), the Kd is reported as > 4 mM (inactive). In the case of Cc1ccc2cc(C(=O)O)ccc2n1, the Kd is reported as > 4 mM (inactive). With OCCN1CCN(C(=S)c2ccc(Cl)cc2)CC1 the Kd was > 4 mM (inactive). With OC1CCC(C(F)(F)F)CC1 (centres undefined) the Kd was > 4 mM (inactive). With COc1cc(CNC(=O)CCCC/C=C/C(C)C)ccc1O the Kd was > 4 mM (inactive). Cn1c(SCC(N)=O)nc2c1c(=O)[nH]c(=O)n2C was tested, and the Kd was > 4 mM (inactive). For CN(C)C(=O)CSc1cccc2cccnc12, the Kd was > 4 mM (inactive). COc1ccc(-c2cn[nH]c2N)c(OC)c1 was tested, and the Kd was > 4 mM (inactive). With Cc1nnc(SCC(=O)N2CCc3ccccc32)s1 the Kd was > 4 mM (inactive). In the case of C[C@@H]1C(=O)O[C@H]2[C@H]1CC[C@@]1(C)C=CC(=O)[C@@]3(C)O[C@@]213, the Kd is reported as > 4 mM (inactive). With COC(=O)C1=CCCN(C)C1 the Kd was > 4 mM (inactive). For CCOC(=O)CN1C(=O)c2ccccc2C1=O, the Kd was > 4 mM (inactive).
